From ChEMBL document CHEMBL3286334, “Identification of tetrapeptides from a mixture based positional scanning library that can restore nM full agonist function of the L106P, I69T, I102S, A219V, C271Y, and C271R human melanocortin-4 polymorphic receptors (hMC4Rs)” (J Med Chem, 2014)
Where a SMILES comes first, the peptide text is derived from it. [ ]: non-standard residue; d: D form. Phe(4-I) = N[C@@H](Cc1ccc(I)cc1)C(=O)O; dPhe(4-I) = N[C@H](Cc1ccc(I)cc1)C(=O)O; Tic = O=C(O)[C@@H]1Cc2ccccc2CN1; dTic = O=C(O)[C@H]1Cc2ccccc2CN1

Columns and labels:
Format in all cases: functional, cell-based
[1] = molecular target: Melanocortin receptor 4 (Homo sapiens, UniProt P32245, L106P); assay: Agonist activity at human melanocortin-4 receptor L106P mutant expressed in HEK293 cells co-transfected with CRE/beta-galactosidase reporter gene assessed as stimulatory response after 6 hrs
[2] = molecular target: Melanocortin receptor 4 (Homo sapiens, UniProt P32245, C271Y); assay: Agonist activity at human melanocortin-4 receptor C271Y mutant expressed in HEK293 cells co-transfected with CRE/beta-galactosidase reporter gene assessed as stimulatory response after 6 hrs
[3] = molecular target: Melanocortin receptor 3 (Mus musculus, UniProt P33033); assay: Agonist activity at mouse melanocortin-3 receptor expressed in HEK293 cells co-transfected with CRE/beta-galactosidase reporter gene assessed as stimulatory response after 6 hrs
[4] = molecular target: Melanocortin receptor 4 (Homo sapiens, UniProt P32245); assay: Agonist activity at wild type human melanocortin-4 receptor expressed in HEK293 cells co-transfected with CRE/beta-galactosidase reporter gene assessed as stimulatory response after 6 hrs
[5] = molecular target: Melanocyte-stimulating hormone receptor (Mus musculus, UniProt Q01727); assay: Agonist activity at mouse melanocortin-1 receptor expressed in HEK293 cells co-transfected with CRE/beta-galactosidase reporter gene assessed as stimulatory response after 6 hrs
[6] = molecular target: Melanocortin receptor 4 (Homo sapiens, UniProt P32245, I102S); assay: Agonist activity at human melanocortin-4 receptor I102S mutant expressed in HEK293 cells co-transfected with CRE/beta-galactosidase reporter gene assessed as stimulatory response after 6 hrs
[7] = molecular target: Melanocortin receptor 4 (Homo sapiens, UniProt P32245, I69T); assay: Agonist activity at human melanocortin-4 receptor I69T mutant expressed in HEK293 cells co-transfected with CRE/beta-galactosidase reporter gene assessed as stimulatory response after 6 hrs
[8] = molecular target: Melanocortin receptor 5 (Mus musculus, UniProt P41149); assay: Agonist activity at mouse melanocortin-5 receptor expressed in HEK293 cells co-transfected with CRE/beta-galactosidase reporter gene assessed as stimulatory response after 6 hrs
[9] = molecular target: Melanocortin receptor 4 (Mus musculus, UniProt P56450); assay: Agonist activity at mouse melanocortin-4 receptor expressed in HEK293 cells co-transfected with CRE/beta-galactosidase reporter gene assessed as stimulatory response after 6 hrs
[10] = molecular target: Melanocortin receptor 4 (Homo sapiens, UniProt P32245, A219V); assay: Agonist activity at human melanocortin-4 receptor A219V mutant expressed in HEK293 cells co-transfected with CRE/beta-galactosidase reporter gene assessed as stimulatory response after 6 hrs

Row | SMILES | EC50 [1] [nM] | EC50 [4] [nM] | other results
1 | CC(=O)N[C@@H](CCCNC(=N)N)C(=O)N[C@H](Cc1ccc(Cl)cc1)C(=O)N[C@@H](CCCNC(=N)N)C(=O)N[C@@H](Cc1ccc(I)cc1)C(N)=O | 13 | – | EC50 [2]: > 100000 nM
2 | CC(=O)N[C@@H](CCCNC(=N)N)C(=O)N[C@H](Cc1ccc(I)cc1)C(=O)N1Cc2ccccc2CC1C(=O)N[C@H](Cc1ccc([N+](=O)[O-])cc1)C(N)=O (stereo partly drawn) | – | – | EC50 [3]: 47 nM
3 | CC(=O)N[C@@H](Cc1c[nH]cn1)C(=O)N[C@H](Cc1ccc(Cl)cc1)C(=O)N1Cc2ccccc2C[C@H]1C(=O)N1Cc2ccccc2C[C@H]1C(N)=O | 11400 | 160 | –
4 | CC(=O)N[C@@H](Cc1c[nH]cn1)C(=O)N[C@H](Cc1ccc(Cl)cc1)C(=O)N[C@@H](CCCNC(=N)N)C(=O)N1Cc2ccccc2C[C@H]1C(N)=O | 7780 | 110 | –
5 | CC(=O)N[C@@H](CCCNC(=N)N)C(=O)N[C@H](Cc1ccc(I)cc1)C(=O)N1Cc2ccccc2CC1C(=O)N[C@@H](Cc1ccc(I)cc1)C(N)=O (stereo partly drawn) | 2230 | 203 | –
6 | CC(=O)N1Cc2ccccc2C[C@H]1C(=O)N[C@H](Cc1ccccc1)C(=O)N[C@@H](CCCNC(=N)N)C(=O)N[C@@H](Cc1c[nH]c2ccccc12)C(N)=O (Ac-[Tic][dF]RW-NH2) | – | – | EC50 ([1]; hek293): 4940 nM; EC50 ([4]; hek293): 15 nM
7 | CC(=O)N1Cc2ccccc2C[C@H]1C(=O)N[C@H](Cc1ccc(I)cc1)C(=O)N[C@@H](CCCNC(=N)N)C(=O)N1Cc2ccccc2C[C@H]1C(N)=O | 2260 | 280 | –
8 | CC(=O)N1Cc2ccccc2CC1C(=O)N[C@H](Cc1ccc(Cl)cc1)C(=O)N[C@@H](CCCNC(=N)N)C(=O)N[C@@H](Cc1ccc(I)cc1)C(N)=O (stereo partly drawn) | 380 | 2.6 | –
9 | CC(=O)N[C@@H](Cc1cnc[nH]1)C(=O)N[C@H](Cc1ccc(Cl)cc1)C(=O)N[C@@H](CCCNC(=N)N)C(=O)N[C@@H](Cc1ccc(I)cc1)C(N)=O | – | – | EC50 [5]: 19 nM
10 | CC(=O)N[C@@H](CCCNC(=N)N)C(=O)N[C@H](Cc1ccccc1)C(=O)N[C@@H](CCCNC(=N)N)C(=O)N[C@@H](Cc1c[nH]c2ccccc12)C(N)=O | 124 | 1.06 | –
11 | CC(=O)N[C@@H](CCCNC(=N)N)C(=O)N[C@H](Cc1ccc(I)cc1)C(=O)N[C@@H](CCCNC(=N)N)C(=O)N1Cc2ccccc2C[C@H]1C(N)=O | 3170 | 57 | –
12 | CC(=O)N[C@@H](Cc1ccc(O)cc1)C(=O)N[C@H](Cc1ccccc1)C(=O)N[C@@H](CCCNC(=N)N)C(=O)N[C@@H](Cc1c[nH]c2ccccc12)C(N)=O (Ac-Y[dF]RW-NH2) | 540 | 6.2 | –
13 | CC(=O)N[C@@H](Cc1c[nH]cn1)C(=O)N[C@H](Cc1ccc(I)cc1)C(=O)N1Cc2ccccc2C[C@H]1C(=O)N1Cc2ccccc2C[C@H]1C(N)=O | 3760 | 24 | –
14 | CC(=O)N[C@@H](CCCNC(=N)N)C(=O)N[C@H](Cc1ccc(Cl)cc1)C(=O)N1Cc2ccccc2C[C@H]1C(=O)N1Cc2ccccc2C[C@H]1C(N)=O | 2450 | 250 | –
15 | CC(=O)N[C@@H](Cc1c[nH]cn1)C(=O)N[C@H](Cc1ccc(I)cc1)C(=O)N[C@@H](CCCNC(=N)N)C(=O)N1Cc2ccccc2C[C@H]1C(N)=O (Ac-H[dPhe(4-I)]R[Tic]-NH2) | 6920 | 89 | –
16 | CC(=O)N[C@@H](CCCNC(=N)N)C(=O)N[C@H](Cc1ccc(I)cc1)C(=O)N[C@@H](CCCNC(=N)N)C(=O)N[C@@H](Cc1ccc(I)cc1)C(N)=O | 4.4 | – | EC50 [6]: 3.5 nM; EC50 [2]: > 100000 nM
17 | CC(=O)N1Cc2ccccc2C[C@H]1C(=O)N[C@H](Cc1ccc(I)cc1)C(=O)N1Cc2ccccc2C[C@H]1C(=O)N[C@H](Cc1ccc([N+](=O)[O-])cc1)C(N)=O | 280 | 5.1 | –
18 | CC(=O)N[C@@H](CCCNC(=N)N)C(=O)N[C@H](Cc1ccc(Cl)cc1)C(=O)N1Cc2ccccc2CC1C(=O)N[C@H](Cc1ccc([N+](=O)[O-])cc1)C(N)=O (stereo partly drawn) | – | – | EC50 [3]: 94 nM
19 | CC(=O)N[C@@H](Cc1cnc[nH]1)C(=O)N[C@H](Cc1ccccc1)C(=O)N[C@@H](CCCNC(=N)N)C(=O)N1Cc2ccccc2CC1C(N)=O (stereo partly drawn) | > 100000 | > 10000 | –
20 | CC(=O)N[C@@H](CCCNC(=N)N)C(=O)N[C@H](Cc1ccc(Cl)cc1)C(=O)N[C@@H](CCCNC(=N)N)C(=O)N1Cc2ccccc2C[C@H]1C(N)=O | 2720 | 110 | –

Row | SMILES | EC50 [1] [nM] | EC50 [4] [nM] | other results
21 | CC(=O)N1Cc2ccccc2CC1C(=O)N[C@H](Cc1ccc(I)cc1)C(=O)N[C@@H](CCCNC(=N)N)C(=O)N[C@@H](Cc1ccc(I)cc1)C(N)=O (stereo partly drawn) | 440 | 4.26 | –
22 | CC(=O)N[C@H](CCCNC(=N)N)C(=O)N[C@H](Cc1ccccc1)C(=O)N[C@@H](CCCNC(=N)N)C(=O)N[C@@H](Cc1c[nH]c2ccccc12)C(N)=O | 1240 | 40 | –
23 | CC(=O)N[C@@H](Cc1c[nH]cn1)C(=O)N[C@H](Cc1ccccc1)C(=O)N1Cc2ccccc2C[C@H]1C(=O)N[C@@H](Cc1c[nH]c2ccccc12)C(N)=O | – | – | EC50 ([1]; hek293): 18800 nM; EC50 ([4]; hek293): 204 nM
24 | CC(=O)N1Cc2ccccc2C[C@H]1C(=O)N[C@H](Cc1ccc(Cl)cc1)C(=O)N1Cc2ccccc2C[C@H]1C(=O)N[C@H](Cc1ccc([N+](=O)[O-])cc1)C(N)=O | 310 | 9.6 | –
25 | CC(=O)N[C@@H](CCCNC(=N)N)C(=O)N[C@H](Cc1ccc(I)cc1)C(=O)N1Cc2ccccc2C[C@H]1C(=O)N[C@H](Cc1ccc([N+](=O)[O-])cc1)C(N)=O | 2.6 | 0.26 | EC50 [5]: 2.7 nM; EC50 [7]: 4.1 nM; EC50 [6]: 2.9 nM; EC50 [2]: 19700 nM; EC50 [8]: 1.1 nM; EC50 [9]: 2.7 nM; EC50 [10]: 6.1 nM
26 | CC(=O)N[C@@H](Cc1cnc[nH]1)C(=O)N[C@H](Cc1ccc(Cl)cc1)C(=O)N1Cc2ccccc2CC1C(=O)N[C@@H](Cc1ccc(I)cc1)C(N)=O (stereo partly drawn) | 790 | 15 | –
27 | CC(=O)N1Cc2ccccc2C[C@H]1C(=O)N[C@H](Cc1ccc(I)cc1)C(=O)N[C@@H](CCCNC(=N)N)C(=O)N[C@H](Cc1ccc([N+](=O)[O-])cc1)C(N)=O | 657 | 20 | –
28 | CC(=O)N1Cc2ccccc2C[C@H]1C(=O)N[C@H](Cc1ccc(Cl)cc1)C(=O)N[C@@H](CCCNC(=N)N)C(=O)N1Cc2ccccc2C[C@H]1C(N)=O | 15500 | 960 | –
29 | CC(=O)N1Cc2ccccc2CC1C(=O)N[C@H](Cc1ccc(Cl)cc1)C(=O)N1Cc2ccccc2CC1C(=O)N[C@@H](Cc1ccc(I)cc1)C(N)=O (stereo partly drawn) | 2670 | 120 | –
30 | CC(=O)N1Cc2ccccc2C[C@H]1C(=O)N[C@H](Cc1ccc(Cl)cc1)C(=O)N[C@@H](CCCNC(=N)N)C(=O)N[C@H](Cc1ccc([N+](=O)[O-])cc1)C(N)=O | 710 | 40 | –
31 | CC(=O)N[C@@H](Cc1cnc[nH]1)C(=O)N[C@H](Cc1ccccc1)C(=O)N[C@@H](CCCCN)C(=O)N[C@@H](Cc1c[nH]c2ccccc12)C(N)=O | 6240 | 40 | –
32 | CC(=O)N[C@@H](Cc1cnc[nH]1)C(=O)N[C@H](Cc1ccc(I)cc1)C(=O)N1Cc2ccccc2CC1C(=O)N[C@H](Cc1ccc([N+](=O)[O-])cc1)C(N)=O (stereo partly drawn) | – | – | EC50 [3]: 35 nM
33 | CC(=O)N[C@@H](Cc1cnc[nH]1)C(=O)N[C@H](Cc1ccc(I)cc1)C(=O)N1Cc2ccccc2CC1C(=O)N[C@@H](Cc1ccc(I)cc1)C(N)=O (stereo partly drawn) | 570 | 7.42 | –
34 | CC(=O)N[C@@H](CCCNC(=N)N)C(=O)N[C@H](Cc1ccc(Cl)cc1)C(=O)N1Cc2ccccc2CC1C(=O)N[C@@H](Cc1ccc(I)cc1)C(N)=O (stereo partly drawn) | 215 | 22 | –
35 | CC(=O)N[C@@H](Cc1cnc[nH]1)C(=O)N[C@H](Cc1ccc(Cl)cc1)C(=O)N1Cc2ccccc2CC1C(=O)N[C@H](Cc1ccc([N+](=O)[O-])cc1)C(N)=O (stereo partly drawn) | – | – | EC50 [3]: 55 nM
36 | CC(=O)N[C@@H](Cc1cnc[nH]1)C(=O)N[C@H](Cc1ccccc1)C(=O)N[C@@H](CCCNC(=N)N)C(=O)N[C@@H](Cc1ccc([N+](=O)[O-])cc1)C(N)=O | 23000 | 195 | –
37 | CC(=O)N[C@@H](Cc1c[nH]c2ccccc12)C(=O)N[C@H](Cc1ccccc1)C(=O)N[C@@H](CCCN=C(N)N)C(=O)N[C@@H](Cc1c[nH]c2ccccc12)C(N)=O (Ac-W[dF]RW-NH2) | 170 | 32 | –
38 | CC(=O)N[C@@H](Cc1cnc[nH]1)C(=O)N[C@H](Cc1ccc(I)cc1)C(=O)N[C@@H](CCCNC(=N)N)C(=O)N[C@@H](Cc1ccc(I)cc1)C(N)=O (Ac-H[dPhe(4-I)]R[Phe(4-I)]-NH2) | – | – | EC50 [5]: 12 nM; EC50 [2]: > 100000 nM
39 | CC(=O)N[C@@H](CCCNC(=N)N)C(=O)N[C@H](Cc1ccc(I)cc1)C(=O)N1Cc2ccccc2C[C@H]1C(=O)N1Cc2ccccc2C[C@H]1C(N)=O | 27500 | 2260 | –
40 | CC(=O)N1Cc2ccccc2C[C@@H]1C(=O)N[C@H](Cc1ccccc1)C(=O)N[C@@H](CCCN=C(N)N)C(=O)N[C@@H](Cc1c[nH]c2ccccc12)C(N)=O (Ac-[dTic][dF]RW-NH2) | 17900 | 297 | –
